Columns and labels:
[1] = test system: endocrine progenitor cells; test: BC step 1 screen: flow cytometry of INS, NKX6.1 and GCG expression; assay type: cell-based, human; settings: added on top of BC step 1 medium comprising DZNEP, Alk5i, Heparin, Nicotinamide; FIG. 3
Method: As a first step towards generating fully functional mature beta cells, we screened for factors to generate maximal numbers of immature INS+/NKX6.1+ cells (BC step 1 screen). […]
Compounds were screened for their ability to induce INS+, NKX6.1+ double positive immature BCs and few GCG positive cells within a 7 days period. Media change was performed daily. Cells were fixed at day 4 and day 7 of BC step 1 and analysed for INS NKX6.1 and GCG expression using flow cytometry (see Table 1 and FIG. 2). Briefly, differentiated endocrine cells were dispersed into single-cell suspension by incubation with TrypLE Express at 37° C. for 10 min. Differentiated endocrine cells were resuspended in 4% paraformaldehyde, washed in PBS followed by incubation with primary antibodies overnight and then secondary antibodies for 1 hour. The differentiated hPSCs co-expressed C-peptide+/NKX6.1+ with few cells expressing the α-cell hormone glucagon (FIG. 2). When quantified by flow cytometry, 48% of the cells co-expressed C-peptide+/NKX6-1 (FIG. 2), more than previously reported with stem cell-derived beta cells (Pagliuca et al., Cell. 2014 Oct. 9; 159(2):428-39. doi: 10.1016/j.cell.2014.09.040; Rezania et al., Nat Biotechnol. 2014 November; 32(11):1121-33. doi: 10.1038/nbt.3033. Epub 2014 Sep. 11).
Hits compounds of Table 2 have been identified in a primary screen.

[2] = test system: stem cell-derived endocrine progenitor cells; test: BC step 1 medium with or without Nicotinamide: BC FACS phenotype; assay type: cell-based, human; settings: BC step 1 medium with or without 10 mM Nicotinamide, 4 days, then 2 days BC step 2; FIG. 16
Method: To evaluate the effect of Nicotinamide, stem cell-derived endocrine progenitor cells were differentiated in BC step 1 medium with or without Nicotinamide, followed by a culturing step in BC step 2 medium.
Cell were differentiated to endocrine progenitors and then subjected to BC step 1 medium for 4 days (BC step 1 medium comprises RPMI1640 with Glutamax, 0.1% Pen/Strep, 12% KOSR, 10 μM Alk5i, 1 μM T3, 1 μM DZNEP, 10 μg/ml heparin, 25 μM DAPT, and with or without 10 mM Nicotinamide).
Cells were then subjected to BC step 2 cell culture medium for 2 days before analysing by FACS. BC step 2 medium consisted of: RPMI1640 with Glutamax, 0.1% Pen/Strep, 12% KOSR, 50 μM GABA, 10 μM Alk5i, 1 μM T3 and 10 μM DZNEP.

[3] = test system: hPSC-derived beta cells; test: Perfusion assay of dynamic human insulin secretion in vitro; assay type: cell-based
Method: Mature beta cells are functionally defined by their rapid response to elevate glucose. Secretion of human insulin by beta cells at the end of BC step 2 method with BC step 2 medium comprising 50 μM GABA, 10 μM Alk5i, 1 μM T3 was measured as repeated responses to 20 mM glucose±1 μM exendin-4 a GLP1-receptor agonist or ±the anti-diabetic sulfonylurea compound Tolbutamide within a perfusion system.
Briefly, groups of 300 hand-picked, clusters of hESC- or hiPSC-derived cell clusters were suspended with beads (Bio-Rad #150-4124) in plastic chambers of Biorep PERFUSION SYSTEM (Biorep #PERI-4.2). Under temperature and CO2-controlled conditions, the cells were perfused at 0.5 ml min−1 with a Krebs buffer. Prior to sample collection, cells were equilibrated under basal (2 mM glucose) conditions for 1 h. During perfusion cells were exposed to repeated challenges with 20 mM glucose±1 μM exendin-4 or ±100 μM Tolbutamide. At the end of perfusion, cells were exposed to cAMP-elevating agents (dbcAMP) on top of 20 mM glucose. Insulin secretion was measured by human insulin ELISA (Mercodia).

## C[C@H](NC(=O)Cc1cc(F)cc(F)c1)C(=O)NC(C(=O)OC(C)(C)C)c1ccccc1 (some centres unmarked) [DAPT]
[1]
  number of INS+/NKX6.1+ cells: highest number of INS+/NKX6.1+ cells

## NC(=O)c1cccnc1 [Nicotinamide]
[2]
  BC FACS phenotype: not affected

## CCCCNC(=O)NS(=O)(=O)c1ccc(C)cc1 [tolbutamide]
[3]; day 7 of BC step 2, 20 mM glucose ± 100 μM Tolbutamide
  effect on insulin secretion: significant additive effect

## Dibutyryl-cAMP [dbcAMP]
[1]
  number of INS+/NKX6.1+ cells: highest number of INS+/NKX6.1+ cells

## exendin-4
[3]; 20 mM glucose ± 1 μM exendin-4
  level of insulin secretion in the hPSC-derived beta cells: increased the level of insulin secretion

Reference: patent US20210230554A1, “GENERATION OF FUNCTIONAL BETA CELLS FROM HUMAN PLURIPOTENT STEM CELL-DERIVED ENDOCRINE PROGENITORS” (Novo Nordisk A/S, priority 2018, published 2021)
